Assay results taken from ChEMBL document CHEMBL5390279, “Hydrolytic Activity of Mitochondrial F1FO-ATP Synthase as a Target for Myocardial Ischemia-Reperfusion Injury: Discovery and In Vitro and In Vivo Evaluation of Novel Inhibitors” (J Med Chem, 2023).
Blank lines part the entries; values can stand above or below the compound they belong to. Activity calls are given as the source filed them. The calls are words filed in the database; no cut-off is given here.

Tests used:
[1] = Inhibition of mouse heart mitochondrial F0F1-ATP synthase hydrolytic activity incubated for 10 mins by microplate reader analysis; format: mitochondria, Mitochondria
[2] = species: Mus musculus; test: Inhibition of mouse heart mitochondrial F0F1-ATP synthase hydrolytic activity at 200 uM incubated for 10 mins by microplate reader analysis; details: Mitochondria
[3] = test system: H9c2; test: Induction of mitochondrial membrane potential loss in rat H9c2 cells assessed as increase in fluorescence intensity at 10 to 100 uM in presence of rotenone by TMRM dye based assay; format: cell-based; details: dose 10-100 µM
[4] = test system: H9c2; test: Cytotoxicity against rat H9c2 cells assessed as reduction in cell viability at 50 to 100 uM incubated for 24 hrs by MTT assay; format: toxicity, cell-based; details: h9c2, 24 h, dose 50-100 µM
[5] = test system: H9c2; test: Cytotoxicity against rat H9c2 cells assessed as reduction in cell viability at 10 to 100 uM incubated for 24 hrs by MTT assay; format: toxicity, cell-based; details: h9c2, 24 h, dose 10-100 µM
[6] = species: Mus musculus; test: Inhibition of mouse heart mitochondrial F0F1-ATP synthase hydrolytic activity at 200 uM incubated for 10 mins by microplate reader analysis relative to control; details: Mitochondria
[7] = test system: H9c2; test: Induction of mitochondrial membrane potential loss in rat H9c2 cells assessed as increase in fluorescence intensity at 100 uM in presence of rotenone by TMRM dye based assay; format: cell-based
[8] = test system: H9c2; test: Induction of mitochondrial membrane potential loss in rat H9c2 cells assessed as increase in fluorescence intensity at 50 uM in presence of rotenone by TMRM dye based assay; format: cell-based
[9] = test system: H9c2; test: Induction of mitochondrial membrane potential loss in rat H9c2 cells assessed as increase in fluorescence intensity at 10 uM in presence of rotenone by TMRM dye based assay; format: cell-based
[10] = test system: H9c2; test: Cytotoxicity against rat H9c2 cells assessed as reduction in cell viability at 100 uM incubated for 24 hrs by MTT assay; format: toxicity, cell-based; details: h9c2, 24 h
[11] = test system: H9c2; test: Cytotoxicity against rat H9c2 cells assessed as reduction in cell viability at 50 uM incubated for 24 hrs by MTT assay; format: toxicity, cell-based; details: h9c2, 24 h
[12] = test system: H9c2; test: Induction of mitochondrial membrane potential loss in rat H9c2 cells assessed as increase in fluorescence intensity at 10 uM by TMRM dye based assay; format: cell-based
[13] = test system: H9c2; test: Cytotoxicity against rat H9c2 cells assessed as reduction in cell survival at 100 uM incubated for 24 hrs by MTT assay; format: toxicity, cell-based; details: h9c2, 24 h
[14] = test system: H9c2; test: Cytotoxicity against rat H9c2 cells assessed as reduction in cell survival at 10 to 50 uM incubated for 24 hrs by MTT assay; format: toxicity, cell-based; details: h9c2, 24 h, dose 10-50 µM
[15] = species: Mus musculus; test: Effect on mPTP opening in C57BL6 mouse heart mitochondria assessed as number of calcium pulses by measuring green-5N fluorescence intensity at 10 to 1000 uM by calcium retention capacity assay; details: dose 10-1000 µM
[16] = species: Mus musculus; test: Effect on mPTP opening in C57BL6 mouse heart mitochondria assessed as number of calcium pulses by measuring green-5N fluorescence intensity at 10 to 1000 uM in presence of cyclosporin A by calcium retention capacity assay; details: dose 10-1000 µM
[17] = test system: H9c2; test: Induction of mitochondrial membrane potential loss in rat H9c2 cells assessed as increase in fluorescence intensity at 3 uM in presence of rotenone by TMRM dye based assay; format: cell-based
[18] = test system: H9c2; test: Induction of mitochondrial membrane potential loss in rat H9c2 cells assessed as increase in fluorescence intensity at 3 uM by TMRM dye based assay; format: cell-based
[19] = test system: H9c2; test: Induction of mitochondrial membrane potential loss in rat H9c2 cells assessed as increase in fluorescence intensity at 100 uM by TMRM dye based assay; format: cell-based
[20] = test system: Mus musculus; test: Cardioprotective activity against cardiac ischemia/reperfusion induced C57BL/6J mouse model assessed as reduction in cardiac infarct size at 5 mg/kg, iv prior to 5 mins of myocardial ischemia and 2 hrs of reperfusion (Rvb= 45.4 +/- 1.8 %); format: functional; design: scale not given: the % may be the effect or the level left; details: time 125 min, 2.083 h
[21] = test system: H9c2; test: Induction of mitochondrial membrane potential loss in rat H9c2 cells assessed as increase in fluorescence intensity at 50 uM by TMRM dye based assay; format: cell-based
[22] = test system: H9c2; test: Cytotoxicity against rat H9c2 cells assessed as reduction in cell survival at 50 uM incubated for 24 hrs by MTT assay; format: toxicity, cell-based; details: h9c2, 24 h
[23] = test system: Mus musculus; test: Cardioprotective activity against cardiac ischemia/reperfusion induced C57BL/6J mouse model assessed as reduction in cardiac infarct size at 3.5 mg/kg, iv prior to 5 mins of myocardial ischemia and 2 hrs of reperfusion (Rvb= 45.4 +/- 1.8 %); format: functional; design: scale not given: the % may be the effect or the level left; details: time 125 min, 2.083 h
[24] = test system: H9c2; test: Induction of mitochondrial membrane potential loss in rat H9c2 cells assessed as increase in fluorescence intensity at 50 to 100 uM in presence of rotenone by TMRM dye based assay; format: cell-based; details: dose 50-100 µM
[25] = test system: H9c2; test: Induction of mitochondrial membrane potential loss in rat H9c2 cells assessed as increase in fluorescence intensity at 0.1 to 100 uM by TMRM dye based assay; format: cell-based; details: dose 0.1-100 µM
[26] = test system: H9c2; test: Cytotoxicity against rat H9c2 cells assessed as reduction in cell survival at 0.1 to 100 uM incubated for 24 hrs by MTT assay; format: toxicity, cell-based; details: h9c2, 24 h, dose 0.1-100 µM
[27] = test system: H9c2; test: Cytotoxicity against rat H9c2 cells assessed as reduction in cell survival at 10 to 100 uM incubated for 24 hrs by MTT assay; format: toxicity, cell-based; details: h9c2, 24 h, dose 10-100 µM
[28] = test system: Mus musculus; test: Cardioprotective activity against cardiac ischemia/reperfusion induced C57BL/6J mouse model assessed as reduction in cardiac infarct size at 5 mg/kg, iv measured after 5 mins of myocardial ischemia and 2 hrs of reperfusion (Rvb= 45 +/- 2.2 %); format: functional; design: scale not given: the % may be the effect or the level left; details: time 125 min, 2.083 h
[29] = test system: Mus musculus; test: Cardioprotective activity against cardiac ischemia/reperfusion induced C57BL/6J mouse model assessed as reduction in cardiac infarct size at 5 mg/kg, iv measured after 25 mins of myocardial ischemia and 2 hrs of reperfusion (Rvb= 47.8 +/- 3.4 %); format: functional; design: scale not given: the % may be the effect or the level left; details: time 145 min, 2.417 h
[30] = test system: Mus musculus; test: (§1) Cardioprotective activity against cardiac ischemia/reperfusion induced C57BL/6J mouse model assessed as increase in ATP level at 3.5 mg/kg, iv preincubated under ischemic condition for 30 mins followed by compound addition for 5 mins and subsequent incubation under reperfusion for 10 mins; format: functional, organism-based; details: time 15.0 min
[31] = test system: Mus musculus; test: as §1, with “increase in Akt phosphorylation at 3.5” for “increase in ATP level at 3.5”, “10 mins by Western blot analysis” for “10 mins”; format: functional, organism-based; details: time 15.0 min
[32] = test system: Mus musculus; test: as §1, with “increase in ERK1/2 phosphorylation at 3.5” for “increase in ATP level at 3.5”, “10 mins by Western blot analysis” for “10 mins”; format: functional, organism-based; details: time 15.0 min
[33] = test system: Mus musculus; test: as §1, with “increase in GSK3beta phosphorylation at S9 fraction at 3.5” for “increase in ATP level at 3.5”, “10 mins by Western blot analysis” for “10 mins”; format: functional, organism-based; details: time 15.0 min
[34] = test system: Mus musculus; test: as §1, with “assessed as effect on Akt level at” for “assessed as increase in ATP level at”, “10 mins by Western blot analysis” for “10 mins”; format: functional, organism-based; details: time 15.0 min
[35] = test system: Mus musculus; test: as §1, with “assessed as effect on ERK1/2 level at” for “assessed as increase in ATP level at”, “10 mins by Western blot analysis” for “10 mins”; format: functional, organism-based; details: time 15.0 min
[36] = test system: Mus musculus; test: as §1, with “assessed as effect on GSK3beta level at” for “assessed as increase in ATP level at”, “10 mins by Western blot analysis” for “10 mins”; format: functional, organism-based; details: time 15.0 min
[37] = test system: Mus musculus; test: as §1, with “increase in Bcl-XL expression at 3.5” for “increase in ATP level at 3.5”, “10 mins by Western blot analysis” for “10 mins”; format: functional, organism-based; details: time 15.0 min
[38] = test system: Mus musculus; test: as §1, with “increase in Bax expression at 3.5” for “increase in ATP level at 3.5”, “10 mins by Western blot analysis” for “10 mins”; format: functional, organism-based; details: time 15.0 min
[39] = test system: Mus musculus; test: as §1, with “increase in cleaved caspase-3 expression at 3.5” for “increase in ATP level at 3.5”, “10 mins by Western blot analysis” for “10 mins”; format: functional, organism-based; details: time 15.0 min

IC50 [1]: 65.6 µM
SMILES: Oc1ccc(/C=C/c2cc(O)cc(O)c2)cc1 [RESVERATROL]

IC50 [1]: 164 µM
inhibition [2]: Active
SMILES: COc1ccc(Cn2nc(-c3cccc(F)c3)c3cc(Nc4ccc(N5CCN(C)CC5)cc4)nc(N4CCN(C)CC4)c32)cc1
Activity [3]: Active
Activity [4]: Toxic
Activity [5]: Non-Toxic

IC50 [1]: 1980 µM
inhibition [2]: Active
SMILES: COc1ccc(Cn2nc(-c3cccc(F)c3)c3cc(Nc4ccc(N5CCN(C)CC5)cc4)nc(N4CCOCC4)c32)cc1

IC50 [1]: 151 µM
inhibition [6]: 50%
Activity [15]: inactive
Activity [16]: inactive
SMILES: COc1ccc(Cn2nc(-c3ccccc3)c3cc(Cl)nc(N4CCNCC4)c32)cc1
Activity [7]: Active
Activity [8]: Active
Activity [9]: inactive
Activity [10]: Toxic
Activity [11]: Non-Toxic
Activity [12]: inactive
Activity [13]: Toxic
Activity [14]: Non-Toxic

SMILES: CC[C@@H]1/C=C/C=C/C[C@H](C)[C@@H](O)[C@](C)(O)C(=O)[C@H](C)[C@@H](O)[C@H](C)C(=O)[C@H](C)[C@@H](O)[C@H](C)/C=C/C(=O)O[C@H]2[C@@H](C)[C@@H](CC1)O[C@@]1(CC[C@@H](C)[C@@H](C[C@H](C)O)O1)[C@@H]2C
IC50 [1]: 18.5 µM
Activity [17]: Active
Activity [18]: inactive
Activity [9]: inactive
Activity [12]: inactive

IC50 [1]: 347 µM
SMILES: O=C(Oc1cc(S(=O)(=O)c2ccccc2)ccc1[N+](=O)[O-])c1ccc(Cl)cc1
Activity [8]: inactive
Activity [19]: inactive
Activity [13]: Non-Toxic
Activity [20]: 39.6%

IC50 [1]: 303 µM
SMILES: COc1cc2oc(-c3ccc(O)cc3O)c(C=O)c2c(O)c1CC=C(C)C

IC50 [1]: 162 µM
inhibition [6]: 50%
SMILES: Oc1ccc(/C=C/c2c3c(cc4c2[C@H](c2cc(O)cc(O)c2)[C@@H](c2ccc(O)cc2)O4)O[C@H](c2ccc(O)cc2)[C@H]3c2cc(O)cc(O)c2)cc1

SMILES: O=c1c(O)c(-c2ccc(O)c(O)c2)oc2cc(O)cc(O)c12 [QUERCETIN]
IC50 [1]: 128 µM

IC50 [1]: 85.5 µM
Activity [15]: inactive
Activity [16]: inactive
SMILES: COc1ccc(Cn2nc(-c3ccccc3)c3cc(Nc4ccc(N5CCN(C)CC5)cc4)nc(N4CCN(C)CC4)c32)cc1
Activity [7]: Active
Activity [8]: Active
Activity [9]: inactive
Activity [10]: Toxic
Activity [21]: inactive
Activity [12]: inactive
Activity [13]: Toxic
Activity [22]: Non-Toxic
Activity [23]: 34.8%

IC50 [1]: 756 µM
SMILES: Oc1ccc(/C=C/c2cc(O)cc3c2[C@H](c2cc(O)cc(O)c2)[C@@H](c2ccc(O)cc2)O3)cc1

IC50 [1]: 107 µM
Activity [15]: inactive
Activity [16]: inactive
SMILES: COc1ccc(Cn2nc(-c3ccccc3)c3cc(Nc4ccc(N5CCN(C)CC5)cc4)nc(N4CCNCC4)c32)cc1
Activity [7]: Active
Activity [8]: Active
Activity [9]: inactive
Activity [10]: Toxic
Activity [21]: inactive
Activity [12]: inactive
Activity [22]: Non-Toxic
Activity [23]: 33.4%

IC50 [1]: 98.5 µM
inhibition [2]: Active
SMILES: COc1ccc(Cn2nc(-c3ccccc3)c3cc(Nc4ccc(N5CCN(C)CC5)cc4)nc(N4CCOCC4)c32)cc1
Activity [24]: Active
Activity [25]: inactive
Activity [26]: Non-Toxic
Activity [27]: Non-Toxic
Activity [23]: 25.6%
Activity [28]: 23.1%
Activity [29]: 40.4%
Activity [30]: Active
Activity [31]: Active
Activity [32]: Active
Activity [33]: Active
Activity [34]: Active
Activity [35]: Active
Activity [36]: Active
Activity [37]: Active
Activity [38]: Active
Activity [39]: Active
